The values below come from patent US12540141B2, “Spiropyrrolidine derived antiviral agents” (priority 2020, dated 2026).

For the assay, the target named is SARS-CoV-2 3CL-protease (Severe acute respiratory syndrome coronavirus 2, UniProt P0DTD1). Put plainly: SARS-CoV-2 3C-Like (3CL) Protease Fluorescence Assay (FRET). The settings on record: SARS-CoV-2 3CL-protease 10 nM, 30 min preincubation at RT, substrate 40 μM. Type of assay: biochemical.
For the compound `N#C[C@@H]1C[C@@]2(CN1C(=O)[C@H](CC1CC1)NC(=O)c1cccc(OC(F)(F)F)c1)C(=O)Nc1ccc(F)cc12` [Example 526], the 50% inhibitory concentration (IC50) was less than 100 nM.
`CN(C(=O)CN1CCOCC1)[C@@H](CC(C)(C)F)C(=O)N1C[C@]2(C[C@H]1C#N)C(=O)Nc1ccccc12` [Example 536] registered an IC50 of 100 to 1000 nM.
Next, `CC(C)(C)n1cc(C(=O)N[C@@H](CC2CC2)C(=O)N2C[C@]3(C[C@H]2C#N)C(=O)Nc2ccccc23)cn1` [Example 132]: less than 100 nM; `CN(C(=O)c1ccn(CC(F)(F)F)n1)[C@@H](Cc1ccccc1)C(=O)N1C[C@]2(C[C@H]1C#N)C(=O)Nc1ccccc12` [Example 360]: less than 100 nM.
In turn, `CC(C)C[C@@H](C(=O)N1C[C@]2(C[C@H]1C#N)C(=O)Nc1ccccc12)N(C)C(=O)c1ccc2c(Cl)ccnc2c1` [Example 271] showed a concentration for half-maximal inhibition (IC50) of 100 to 1000 nM.
Turning to `CN(C(=O)c1cn(C2CCC2)nn1)[C@@H](Cc1ccccc1)C(=O)N1C[C@]2(C[C@H]1C#N)C(=O)Nc1ccccc12` [Example 358], the IC50 was less than 100 nM.
Next, `CN(C(=O)Cc1ccncc1)[C@@H](CC(C)(C)F)C(=O)N1C[C@]2(C[C@H]1C#N)C(=O)Nc1ccc(Cl)cc12` [Example 477]: less than 100 nM.
Compound `CC(C)C[C@@H](C(=O)N1C[C@]2(C[C@H]1C#N)C(=O)Nc1ccccc12)N(C)C(=O)c1ccc2ncccc2n1` [Example 303] gave a half-maximal inhibitory concentration (IC50) of less than 100 nM.
Consider `CN(C(=O)C1(c2ccncc2)CC1)[C@@H](CC(C)(C)F)C(=O)N1C[C@]2(C[C@H]1C#N)C(=O)Nc1ccc(Cl)cc12` [Example 473, N—((S)-1-((3R,5′S)-5-chloro-5′-cyano-2-oxospiro[indoline-3,3′-pyrrolidin]-1′-yl)-4-fluoro-4-methyl-1-oxopentan-2-yl)-N-methyl-1-(pyridin-4-yl)cyclopropane-1-carboxamide], for which the IC50 was less than 100 nM.
In turn, `CN(C(=O)c1cnc(C(F)(F)F)[nH]1)[C@@H](CC1CC1)C(=O)N1C[C@]2(C[C@H]1C#N)C(=O)Nc1ccccc12` [Example 407] displayed an IC50 of less than 100 nM.
`CCCOC[C@H](NC(=O)c1cc2c(OC)cccc2[nH]1)C(=O)N1C[C@]2(C[C@H]1C#N)C(=O)Nc1ccccc12` [Example 126] displayed an IC50 of less than 100 nM.
Next, `C[C@@H]1CCC[C@H](C)N1CCC(=O)N(C)[C@@H](CC(C)(C)F)C(=O)N1C[C@]2(C[C@H]1C#N)C(=O)Nc1ccccc12` [Example 545]: less than 100 nM; `CC(C)C[C@@H](C(=O)N1C[C@]2(C[C@H]1C#N)C(=O)Nc1ccccc12)N(C)C(=O)c1cc2ccc(C(C)C)nc2[nH]1` [Example 491]: less than 100 nM; `[2H]C([2H])([2H])N(C(=O)[C@@H](O)c1ccccc1)[C@@H](CC(C)(C)C)C(=O)N1C[C@]2(C[C@H]1C#N)C(=O)Nc1ccccc12` [Example 427]: less than 100 nM.
`CC(C)C[C@@H](C(=O)N1C[C@]2(C[C@H]1C#N)C(=O)Nc1ccccc12)N(C)C(=O)c1cc2ccc(Br)cc2cn1` [Example 236] returned an IC50 of 100 to 1000 nM.
For the compound `Cc1ccc2cc(C(=O)N(C)[C@@H](CC(C)C)C(=O)N3C[C@]4(C[C@H]3C#N)C(=O)Nc3ccccc34)cc(OC3CC3)c2n1` [Example 321], the half-maximal inhibitory concentration (IC50) is less than 100 nM.
Next, `CC(C)C[C@@H](C(=O)N1C[C@]2(C[C@H]1C#N)C(=O)Nc1ccccc12)N(C)C(=O)c1ccc(F)c2ccccc12` [Example 221]: less than 100 nM; `CN(C(=O)Cc1cccnc1)[C@@H](CC(C)(C)F)C(=O)N1C[C@]2(C[C@H]1C#N)C(=O)Nc1ccc(Cl)cc12` [Example 476]: less than 100 nM.
Consider `C[C@H](C(=O)N(C)[C@@H](CC(C)(C)C)C(=O)N1C[C@]2(C[C@H]1C#N)C(=O)Nc1ccccc12)c1cnn(C)c1` [Example 373], for which the IC50 was less than 100 nM.
Take `CC(C)(F)C[C@H](NC(=O)c1cc2ccccn2n1)C(=O)N1C[C@]2(C[C@H]1C#N)C(=O)Nc1ccc(Cl)cc12` [Example 446]: the IC50 lay in the range of 100 to 1000 nM.
In turn, `COc1ccc2[nH]c(C(=O)N(C)[C@@H](CC(C)C)C(=O)N3C[C@]4(C[C@H]3C#N)C(=O)Nc3ccccc34)nc2c1` [Example 249] returned an IC50 of less than 100 nM.
